Results as given in US20240002952A1, “METHOD FOR IN VITRO DIAGNOSIS OF MUCOSITIS IN CANCER PATIENTS UNDERGOING ANTITUMOR THERAPY” (ISTITUTI FISIOTERAPICI OSPITALIERI, priority 2020, published 2024).

Key:
[1] = test system: Primary epidermal keratinocytes (HEKa)
[2] = test system: Primary gingival keratinocytes

Structure (SMILES) | CC50 Value Primary epidermal keratinocytes (HEKa) [1] | CC50 Value Primary gingival keratinocytes [2] | CC50 [1] [µM] | CC50 [2] [µM]
O=c1[nH]cc(F)c(=O)[nH]1 [5-FLUOROURACILE, 5-fluorouracile] | Not calculable | Not calculable | – | –
Nc1ncn([C@@H]2O[C@H](CO)[C@@H](O)[C@H]2O)c(=O)n1 [AZACYTIDINE, azacytidine] | – | – | 51.2 | 1.8
CCCCCOC(=O)Nc1nc(=O)n([C@@H]2O[C@H](C)[C@@H](O)[C@H]2O)cc1F [CAPECITABIN, capecitabin] | Not calculable | – | – | 103
O=C1[O][Pt]2([NH][C@@H]3CCCC[C@H]3[NH]2)[O]C1=O [OXALIPLATIN, oxaliplatin] | – | – | 32.3 | 46
